Results on four compounds are retold here after PubChem BioAssay AID258 (DTP/NCI, 2004).

The test concerns CD2F1 mice, L1210 leukemia sc, survival T/C. The experiment in a line: NCI In Vivo Anticancer Drug Screen. Data for tumor model L1210 Leukemia (subcutaneous) in CD2F1 (CDF1) mice. The following applies: endpoint: median survival time, higher = longer survival. The method in brief: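 Antitumor activity is scored in tumor-bearing mice by comparing survival or tumor size of treated animals against vehicle-treated controls, reported as T/C.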

Values joined by “and” are separate entries in the source; they are usually repeats but may differ in a detail not shown here. Equal values may be shown once. Inconclusive results and toxic doses are left out.

Consider `O=NN(CCCl)C(=O)NCCCl`, for which the T/C is 108 % of control (dose: 0.25 mg/kg/injection, schedule: Q01DX009 (ip), vehicle: saline + alcohol); 100 % of control and 107 % of control (dose: 0.25 mg/kg/injection, schedule: Q01DX009 (sc), vehicle: saline + alcohol); 121 % of control (dose: 0.5 mg/kg/injection, schedule: Q01DX009 (ip), vehicle: saline + alcohol); 112 % of control and 98 % of control (dose: 0.5 mg/kg/injection, schedule: Q01DX009 (sc), vehicle: saline + alcohol); 121 % of control (dose: 0.88 mg/kg/injection, schedule: Q01DX009 (ip), vehicle: saline + alcohol); 112 % of control (dose: 0.9 mg/kg/injection, schedule: Q01DX009 (ip), vehicle: saline + alcohol). For the same compound, the T/C by setting is: (dose: 1.0 mg/kg/injection, schedule: Q01DX009 (sc), vehicle: saline + alcohol) 108 % of control and 124 % of control; (dose: 1.8 mg/kg/injection, schedule: Q01DX009 (ip), vehicle: saline + alcohol) 120 % of control; (dose: 1.8 mg/kg/injection, schedule: Q01DX Z (sc), vehicle: saline) 243 % of control; (dose: 2.0 mg/kg/injection, schedule: Q01DX009 (ip), vehicle: saline + alcohol) 159 % of control and 192 % of control; (dose: 3.0 mg/kg/injection, schedule: Q01DX Z (sc), vehicle: saline) 512 % of control; (dose: 4.0 mg/kg/injection, schedule: Q01DX009 (ip), vehicle: saline + alcohol) 187 % of control and 219 % of control. In addition, the T/C was 300 % of control (dose: 5.0 mg/kg/injection, schedule: Q01DX Z (sc), vehicle: saline); 150 % of control (dose: 5.0 mg/kg/injection, schedule: Q07DX Z (sc), vehicle: saline); 314 % of control (dose: 5.3 mg/kg/injection, schedule: Q01DX009 (sc), vehicle: saline + alcohol); 222 % of control (dose: 5.33 mg/kg/injection, schedule: Q01DX009 (ip), vehicle: saline + alcohol); 203 % of control (dose: 5.33 mg/kg/injection, schedule: Q01DX009 (sc), vehicle: saline + alcohol); 167 % of control and 184 % of control (dose: 7.0 mg/kg/injection, schedule: Q01DX009 (ip), vehicle: saline + alcohol). Further, the T/C is 179 % of control and 243 % of control (dose: 8.0 mg/kg/injection, schedule: Q01DX009 (ip), vehicle: saline + alcohol); 212 % of control (dose: 8.4 mg/kg/injection, schedule: Q01DX001 (sc), vehicle: saline); 333 % of control (dose: 8.4 mg/kg/injection, schedule: Q01DX017 (ip), vehicle: none); 316 % of control (dose: 8.4 mg/kg/injection, schedule: Q01DX017 (sc), vehicle: saline); 256 % of control (dose: 8.4 mg/kg/injection, schedule: Q01DX Z (sc), vehicle: saline); 293 % of control (dose: 8.4 mg/kg/injection, schedule: Q07DX Z (sc), vehicle: saline). In addition, the T/C by setting is: (dose: 12.0 mg/kg/injection, schedule: Q01DX009 (sc), vehicle: saline + alcohol) 151 % of control and 205 % of control; (dose: 14.0 mg/kg/injection, schedule: Q01DX001 (sc), vehicle: saline) 300 % of control; (dose: 14.0 mg/kg/injection, schedule: Q01DX009 (ip), vehicle: saline + alcohol) 116 % of control; (dose: 14.0 mg/kg/injection, schedule: Q01DX017 (ip), vehicle: none) 588 % of control; (dose: 14.0 mg/kg/injection, schedule: Q01DX017 (sc), vehicle: saline) 388 % of control; (dose: 14.0 mg/kg/injection, schedule: Q01DX Z (sc), vehicle: saline) 212 % of control. Also, the T/C (dose: 14.0 mg/kg/injection, schedule: Q07DX Z (sc), vehicle: saline) was 600 % of control; the T/C (dose: 16.0 mg/kg/injection, schedule: Q01DX009 (sc), vehicle: saline + alcohol) is 160 % of control; the T/C (dose: 23.0 mg/kg/injection, schedule: Q01DX001 (sc), vehicle: saline) was 343 % of control; the T/C (dose: 23.0 mg/kg/injection, schedule: Q01DX017 (ip), vehicle: none) is 731 % of control; the T/C (dose: 23.0 mg/kg/injection, schedule: Q01DX017 (sc), vehicle: saline) is 733 % of control; the T/C (dose: 23.0 mg/kg/injection, schedule: Q07DX Z (sc), vehicle: saline) is 331 % of control. The T/C is, setting by setting: (dose: 32.0 mg/kg/injection, schedule: Q01DX009 (ip), vehicle: saline + alcohol) 98 % of control; (dose: 32.0 mg/kg/injection, schedule: Q01DX009 (sc), vehicle: saline + alcohol) 102 % of control and 124 % of control; (dose: 39.0 mg/kg/injection, schedule: Q01DX001 (sc), vehicle: saline) 243 % of control; (dose: 39.0 mg/kg/injection, schedule: Q01DX017 (ip), vehicle: none) 511 % of control; (dose: 39.0 mg/kg/injection, schedule: Q01DX017 (sc), vehicle: saline) 500 % of control; (dose: 39.0 mg/kg/injection, schedule: Q07DX Z (sc), vehicle: saline) 200 % of control. The T/C (dose: 65.0 mg/kg/injection, schedule: Q01DX001 (sc), vehicle: saline) is 162 % of control.

In the case of `O=C(O)CCCc1ccc(N(CCCl)CCCl)cc1`, the T/C was 98 % of control (dose: 1.5 mg/kg/injection, schedule: Q01DX009 (ip), vehicle: saline with Tween-80); 107 % of control (dose: 3.0 mg/kg/injection, schedule: Q01DX009 (ip), vehicle: saline with Tween-80); 107 % of control (dose: 6.0 mg/kg/injection, schedule: Q01DX009 (ip), vehicle: saline with Tween-80); 123 % of control (dose: 12.0 mg/kg/injection, schedule: Q01DX009 (ip), vehicle: saline with Tween-80).

For the compound `NC(Cc1ccccc1)C(=O)OCN1C(=O)C2C3C=CC(C2C1=O)C1C2C(=O)N(COC(=O)C(N)Cc4ccccc4)C(=O)C2C31` (stereo not drawn), the T/C is, setting by setting: (dose: 21.6 mg/kg/injection, schedule: Q01DX005 (iv), vehicle: other) 107 % of control; (dose: 21.6 mg/kg/injection, schedule: Q01DX009 (ip), vehicle: other) 111 % of control; (dose: 21.6 mg/kg/injection, schedule: Q01DX009 (ip), vehicle: water) 107 % of control and 121 % of control; (dose: 30.9 mg/kg/injection, schedule: Q01DX005 (iv), vehicle: other) 105 % of control; (dose: 30.9 mg/kg/injection, schedule: Q01DX009 (ip), vehicle: other) 112 % of control; (dose: 30.9 mg/kg/injection, schedule: Q01DX009 (ip), vehicle: water) 107 % of control. In addition, the T/C was 109 % of control (dose: 36.0 mg/kg/injection, schedule: Q01DX009 (ip), vehicle: water); 111 % of control (dose: 44.1 mg/kg/injection, schedule: Q01DX005 (iv), vehicle: other); 114 % of control (dose: 44.1 mg/kg/injection, schedule: Q01DX009 (ip), vehicle: other); 117 % of control (dose: 63.0 mg/kg/injection, schedule: Q01DX005 (iv), vehicle: other); 177 % of control (dose: 90.0 mg/kg/injection, schedule: Q01DX009 (ip), vehicle: other); 169 % of control (dose: 90.0 mg/kg/injection, schedule: Q01DX009 (ip), vehicle: water). Besides, the T/C by setting is: (dose: 100.0 mg/kg/injection, schedule: Q01DX009 (ip), vehicle: water) 211 % of control; (dose: 128.6 mg/kg/injection, schedule: Q01DX009 (ip), vehicle: other) 221 % of control; (dose: 128.6 mg/kg/injection, schedule: Q01DX009 (ip), vehicle: water) 227 % of control; (dose: 216.0 mg/kg/injection, schedule: Q01DX009 (oral), vehicle: water) 122 % of control; (dose: 441.0 mg/kg/injection, schedule: Q01DX009 (oral), vehicle: other) 162 % of control; (dose: 630.0 mg/kg/injection, schedule: Q01DX009 (oral), vehicle: other) 234 % of control. In addition, the T/C (dose: 630.0 mg/kg/injection, schedule: Q01DX009 (oral), vehicle: water) was 171 % of control and the T/C (dose: 900.0 mg/kg/injection, schedule: Q01DX009 (oral), vehicle: water) was 270 % of control.

As to `COCCCNc1ncnc2[nH]ncc12`, the T/C (dose: 23.0 mg/kg/injection, schedule: Q01DX Z (sc), vehicle: water) is 100 % of control; the T/C (dose: 39.0 mg/kg/injection, schedule: Q01DX Z (sc), vehicle: water) is 100 % of control; the T/C (dose: 65.0 mg/kg/injection, schedule: Q01DX Z (sc), vehicle: water) is 100 % of control; the T/C (dose: 108.0 mg/kg/injection, schedule: Q01DX Z (sc), vehicle: water) is 100 % of control; the T/C (dose: 180.0 mg/kg/injection, schedule: Q01DX Z (sc), vehicle: water) is 109 % of control; the T/C (dose: 300.0 mg/kg/injection, schedule: Q01DX Z (sc), vehicle: water) is 109 % of control.
